This is an account of results in the supplement of paper PMC10307832.

Test in all cases: relative viability (nuclei count vs DMSO), 5 days (fraction); higher = more cells survive
Compound in assay [1]: COc1cc2nc(N3CCCN(C)CC3)nc(NC3CCN(Cc4ccccc4)CC3)c2cc1OC + CS(=O)(=O)CCNCc1ccc(-c2ccc3ncnc(Nc4ccc(OCc5cccc(F)c5)c(Cl)c4)c3c2)o1 [Lapatinib] (partner 2 µM)
An outline of the steps: (§1)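 Values are medians from duplicate plates. Each reflects relative viability, defined as the nuclei count of treated wells over that of vehicle wells. Lung cancer cell lines in 1536-well plates were pin-tool dosed one day after seeding with one drug alone or with a fixed anchor-drug dose plus five library-drug doses (not always all listed) in √10 steps, then fixed, stained and imaged at 4× after 5 days.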

Compound in the assay “AZD6482 + Olaparib”: Cc1cc([C@@H](C)Nc2ccccc2C(=O)O)c2nc(N3CCOCC3)cc(=O)n2c1 [AZD6482] + O=C(c1cc(Cc2n[nH]c(=O)c3ccccc23)ccc1F)N1CCN(C(=O)C2CC2)CC1 [Olaparib] (partner 8 µM)
Put shortly:
as §1

Compound in the assay “AZD6482 + OSI-027”: Cc1cc([C@@H](C)Nc2ccccc2C(=O)O)c2nc(N3CCOCC3)cc(=O)n2c1 [AZD6482] + COc1cccc2cc(-c3nc([C@H]4CC[C@H](C(=O)O)CC4)n4ncnc(N)c34)[nH]c12 [OSI-027] (partner 0.5 µM)
An outline of the steps:
as §1

Compound in assay [2]: COc1cc2nc(N3CCCN(C)CC3)nc(NC3CCN(Cc4ccccc4)CC3)c2cc1OC + COc1cc2c(Oc3ccc(NC(=O)C4(C(=O)Nc5ccc(F)cc5)CC4)cc3F)ccnc2cc1OCCCN1CCOCC1 [Foretinib] (partner 0.25 µM)
Put shortly:
as §1

Turning to RERF-LC-KJ, the relative viability amounted to 0.832 in assay [1] (first compound 0.2 µM); 0.863 in assay [1] (first compound 0.6325 µM); 0.875 in assay [1] (first compound 2 µM); 0.829 in assay [1] (first compound 6.325 µM); 0.787 with AZD6482 + Olaparib (first compound 0.08 µM); 0.963 in the assay with AZD6482 + Olaparib (first compound 0.253 µM). Moreover, the relative viability was determined as 0.886 in the assay with AZD6482 + Olaparib (first compound 0.8 µM); 0.963 with AZD6482 + Olaparib (first compound 2.53 µM); 0.667 in the assay with AZD6482 + Olaparib (first compound 8 µM); 0.547 with AZD6482 + OSI-027 (first compound 0.08 µM); 0.496 with AZD6482 + OSI-027 (first compound 0.253 µM); 0.458 in the assay with AZD6482 + OSI-027 (first compound 0.8 µM). Besides, the relative viability turned out to be 0.497 with AZD6482 + OSI-027 (first compound 2.53 µM); 0.399 with AZD6482 + OSI-027 (first compound 8 µM); 0.905 in assay [2] (first compound 0.2 µM); 0.927 in assay [2] (first compound 0.6325 µM); 0.904 in assay [2] (first compound 2 µM); 0.857 in assay [2] (first compound 6.325 µM).
For the cell line SK-LU-1, the relative viability in assay [1] (first compound 0.2 µM) came to 0.818; in assay [1] (first compound 0.6325 µM) it was 0.754; in assay [1] (first compound 2 µM) it was 1; in assay [1] (first compound 6.325 µM), 0.839; with AZD6482 + Olaparib (first compound 0.253 µM) it was 0.452; with AZD6482 + Olaparib (first compound 0.8 µM), 0.474. In addition, the relative viability came to 0.405 with AZD6482 + Olaparib (first compound 2.53 µM); 0.359 with AZD6482 + Olaparib (first compound 8 µM); 0.319 with AZD6482 + OSI-027 (first compound 0.253 µM); 0.347 with AZD6482 + OSI-027 (first compound 0.8 µM); 0.246 with AZD6482 + OSI-027 (first compound 2.53 µM); 0.214 with AZD6482 + OSI-027 (first compound 8 µM). Further, the relative viability stood at 0.839 in assay [2] (first compound 0.2 µM), 0.79 in assay [2] (first compound 0.6325 µM), 0.783 in assay [2] (first compound 2 µM) and 0.653 in assay [2] (first compound 6.325 µM).
As for SK-MES-1, the relative viability came to 0.476 in assay [1] (first compound 0.2 µM); 0.433 in assay [1] (first compound 0.6325 µM); 0.539 in assay [1] (first compound 2 µM); 0.483 in assay [1] (first compound 6.325 µM); 0.457 in the assay with AZD6482 + Olaparib (first compound 0.08 µM); 0.598 with AZD6482 + Olaparib (first compound 0.253 µM). The relative viability in the assay with AZD6482 + Olaparib (first compound 0.8 µM) was determined as 0.529; with AZD6482 + Olaparib (first compound 2.53 µM), 0.305; in the assay with AZD6482 + Olaparib (first compound 8 µM), 0.336; in the assay with AZD6482 + OSI-027 (first compound 0.08 µM), 0.502; with AZD6482 + OSI-027 (first compound 0.253 µM) it was 0.554; in the assay with AZD6482 + OSI-027 (first compound 0.8 µM), 0.417. Also, the relative viability with AZD6482 + OSI-027 (first compound 2.53 µM) amounted to 0.302; in the assay with AZD6482 + OSI-027 (first compound 8 µM) it was 0.293; in assay [2] (first compound 0.2 µM) it was 0.842; in assay [2] (first compound 0.6325 µM), 0.926; in assay [2] (first compound 2 µM), 0.97; in assay [2] (first compound 6.325 µM), 0.865.
In the case of SW 1573, the relative viability in assay [1] (first compound 0.2 µM) is 1.15; in assay [1] (first compound 0.6325 µM), 1.07; in assay [1] (first compound 2 µM), 1.26; in assay [1] (first compound 6.325 µM), 1.05; in the assay with AZD6482 + Olaparib (first compound 0.08 µM), 0.478; with AZD6482 + Olaparib (first compound 0.253 µM), 0.4. Moreover, the relative viability worked out at 0.486 with AZD6482 + Olaparib (first compound 0.8 µM); 0.401 with AZD6482 + Olaparib (first compound 2.53 µM); 0.369 with AZD6482 + Olaparib (first compound 8 µM); 0.662 with AZD6482 + OSI-027 (first compound 0.08 µM); 0.52 with AZD6482 + OSI-027 (first compound 0.253 µM); 0.558 with AZD6482 + OSI-027 (first compound 0.8 µM). Further, the relative viability with AZD6482 + OSI-027 (first compound 2.53 µM) is 0.341; in the assay with AZD6482 + OSI-027 (first compound 8 µM) it was 0.347; in assay [2] (first compound 0.2 µM), 0.844; in assay [2] (first compound 0.6325 µM), 0.974; in assay [2] (first compound 2 µM) it was 0.941; in assay [2] (first compound 6.325 µM), 0.862.
